Laboratory results taken from patent US10300065B2, “Method of treating or prevention of atherothrombotic events in patients with history of myocardial infarction” (ASTRAZENECA AB, priority 2015, dated 2019).

Assays:
[1] = tested on: patients with a history of myocardial infarction; experiment: PEGASUS-TIMI 54 analysis by time from P2Y12 inhibitor withdrawal to randomization; conditions: for All-cause mortality, HR / Cor. heart dis. death, HR / Fatal bleeding, HR / Intracranial bleeding, HR / Myocardial infarction, HR / Stroke, HR / TIMI Major Bleeding, HR / TIMI Major or Minor Bleeding, HR / All-cause mortality, (%) / Cor. heart dis. death, (%) / Fatal bleeding, (%) / Intracranial bleeding, (%) / Myocardial infarction, (%) / Stroke, (%) / TIMI Major Bleeding, (%) / TIMI Major or Minor Bleeding, (%): at 3 years
Excerpt: Patients in PEGASUS-TIMI 54 were further categorized by time from last P2Y12 inhibitor (days: ≤30 days, 31-360, >360).

[2] = cited from earlier work
[3] = 60 mg and 90 mg pooled, between 31 days and one year following withdrawal
[4] = 60 mg and 90 mg pooled, within 30 days following withdrawal of dual antiplatelet therapy
[5] = >1 year from P2Y12 inhibitor withdrawal, ticagrelor 60 mg bid vs. placebo
[6] = >1 year from P2Y12 inhibitor withdrawal, ticagrelor 60 mg bid
[7] = >1 year from P2Y12 inhibitor withdrawal, ticagrelor 90 mg bid vs. placebo
[8] = >1 year from P2Y12 inhibitor withdrawal, ticagrelor 90 mg bid
[9] = >1 year from P2Y12 inhibitor withdrawal, ticagrelor pooled vs. placebo
[10] = >1 year from P2Y12 inhibitor withdrawal, ticagrelor pooled
[11] = >30 days to ≤1 year from P2Y12 inhibitor withdrawal, ticagrelor 60 mg bid vs. placebo
[12] = >30 days to ≤1 year from P2Y12 inhibitor withdrawal, ticagrelor 60 mg bid
[13] = >30 days to ≤1 year from P2Y12 inhibitor withdrawal, ticagrelor 90 mg bid vs. placebo
[14] = >30 days to ≤1 year from P2Y12 inhibitor withdrawal, ticagrelor 90 mg bid
[15] = >30 days to ≤1 year from P2Y12 inhibitor withdrawal, ticagrelor pooled vs. placebo
[16] = >30 days to ≤1 year from P2Y12 inhibitor withdrawal, ticagrelor pooled
[17] = pooled doses, withdrawal within 30 days
[18] = ≤30 days from P2Y12 inhibitor withdrawal, ticagrelor 60 mg bid vs. placebo
[19] = ≤30 days from P2Y12 inhibitor withdrawal, ticagrelor 60 mg bid
[20] = ≤30 days from P2Y12 inhibitor withdrawal, ticagrelor 90 mg bid vs. placebo
[21] = ≤30 days from P2Y12 inhibitor withdrawal, ticagrelor 90 mg bid
[22] = ≤30 days from P2Y12 inhibitor withdrawal, ticagrelor pooled vs. placebo
[23] = ≤30 days from P2Y12 inhibitor withdrawal, ticagrelor pooled

CCCSc1nc(N[C@@H]2C[C@H]2c2ccc(F)c(F)c2)c2nnn([C@@H]3C[C@H](OCCO)[C@@H](O)[C@H]3O)c2n1 [Ticagrelor, (1S,2S,3R,5S)-3-[7-{[(1R,2S)-2-(3,4-difluorophenyl)cyclopropyl]amino}-5-(propylthio)-3H-[1,2,3]-triazolo[4,5-d]pyrimidin-3-yl]-5-(2-hydroxyethoxy)cyclopentane-1,2-diol]
absolute reduction in the risk of a subsequent atherothrombotic event [1, 3]: 1.1%
reduction in the risk of developing a subsequent atherothrombotic event [1, 3]: 14%
absolute reduction in the risk of a subsequent atherothrombotic event [1, 4]: 2.2%
reduction in the risk of developing a subsequent atherothrombotic event [1, 4]: 27%
All-cause mortality, HR [1, 5]: 1.34
Cor. heart dis. death, HR [1, 5]: 0.96
Fatal bleeding, HR [1, 5]: 1.11
Intracranial bleeding, HR [1, 5]: 1.56
Myocardial infarction, HR [1, 5]: 0.95
Stroke, HR [1, 5]: 0.95
TIMI Major Bleeding, HR [1, 5]: 2.1
TIMI Major or Minor Bleeding, HR [1, 5]: 2.11
All-cause mortality, (%) [1, 6]: (4.6) %
Cor. heart dis. death, (%) [1, 6]: (1.2) %
Fatal bleeding, (%) [1, 6]: (0.1) %
Intracranial bleeding, (%) [1, 6]: (0.6) %
Myocardial infarction, (%) [1, 6]: (4.1) %
Stroke, (%) [1, 6]: (1.2) %
TIMI Major Bleeding, (%) [1, 6]: (1.9) %
TIMI Major or Minor Bleeding, (%) [1, 6]: (2.3) %
All-cause mortality, HR [1, 7]: 1.31
Cor. heart dis. death, HR [1, 7]: 0.77
Intracranial bleeding, HR [1, 7]: 1.42
Myocardial infarction, HR [1, 7]: 0.84
Stroke, HR [1, 7]: 1.13
TIMI Major Bleeding, HR [1, 7]: 3.28
TIMI Major or Minor Bleeding, HR [1, 7]: 3.82
All-cause mortality, (%) [1, 8]: (4.7) %
Cor. heart dis. death, (%) [1, 8]: (1.1) %
Fatal bleeding, (%) [1, 8]: (0) %
Intracranial bleeding, (%) [1, 8]: (0.5) %
Myocardial infarction, (%) [1, 8]: (3.6) %
Stroke, (%) [1, 8]: (1.5) %
TIMI Major Bleeding, (%) [1, 8]: (3) %
TIMI Major or Minor Bleeding, (%) [1, 8]: (4.4) %
All-cause mortality, HR [1, 9]: 1.32
Cor. heart dis. death, HR [1, 9]: 0.86
Fatal bleeding, HR [1, 9]: 0.57
Intracranial bleeding, HR [1, 9]: 1.48
Myocardial infarction, HR [1, 9]: 0.9
Stroke, HR [1, 9]: 1.04
TIMI Major Bleeding, HR [1, 9]: 2.67
TIMI Major or Minor Bleeding, HR [1, 9]: 2.94
All-cause mortality, (%) [1, 10]: (4.6) %
Cor. heart dis. death, (%) [1, 10]: (1.2) %
Fatal bleeding, (%) [1, 10]: (0) %
Intracranial bleeding, (%) [1, 10]: (0.6) %
Myocardial infarction, (%) [1, 10]: (3.9) %
Stroke, (%) [1, 10]: (1.3) %
TIMI Major Bleeding, (%) [1, 10]: (2.4) %
TIMI Major or Minor Bleeding, (%) [1, 10]: (3.5) %
All-cause mortality, HR [1, 11]: 0.76
Cor. heart dis. death, HR [1, 11]: 0.70
Fatal bleeding, HR [1, 11]: 0.87
Intracranial bleeding, HR [1, 11]: 1.97
Myocardial infarction, HR [1, 11]: 0.88
Stroke, HR [1, 11]: 0.82
TIMI Major Bleeding, HR [1, 11]: 2.94
TIMI Major or Minor Bleeding, HR [1, 11]: 3.07
All-cause mortality, (%) [1, 12]: (3.8) %
Cor. heart dis. death, (%) [1, 12]: (1.4) %
Fatal bleeding, (%) [1, 12]: (0.3) %
Intracranial bleeding, (%) [1, 12]: (0.6) %
Myocardial infarction, (%) [1, 12]: (4.6) %
Stroke, (%) [1, 12]: (1.4) %
TIMI Major Bleeding, (%) [1, 12]: (2.7) %
TIMI Major or Minor Bleeding, (%) [1, 12]: (3.8) %
All-cause mortality, HR [1, 13]: 1.01
Cor. heart dis. death, HR [1, 13]: 0.71
Fatal bleeding, HR [1, 13]: 0.24
Intracranial bleeding, HR [1, 13]: 1.63
Myocardial infarction, HR [1, 13]: 0.82
Stroke, HR [1, 13]: 1.02
TIMI Major Bleeding, HR [1, 13]: 2.85
TIMI Major or Minor Bleeding, HR [1, 13]: 3.17
All-cause mortality, (%) [1, 14]: (4.8) %
Cor. heart dis. death, (%) [1, 14]: (1.4) %
Fatal bleeding, (%) [1, 14]: (0.1) %
Intracranial bleeding, (%) [1, 14]: (0.5) %
Myocardial infarction, (%) [1, 14]: (4.2) %
Stroke, (%) [1, 14]: (1.9) %
TIMI Major Bleeding, (%) [1, 14]: (2.8) %
TIMI Major or Minor Bleeding, (%) [1, 14]: (3.9) %
All-cause mortality, HR [1, 15]: 0.88
Cor. heart dis. death, HR [1, 15]: 0.70
Fatal bleeding, HR [1, 15]: 0.57
Intracranial bleeding, HR [1, 15]: 1.81
Myocardial infarction, HR [1, 15]: 0.85
Stroke, HR [1, 15]: 0.91
TIMI Major Bleeding, HR [1, 15]: 2.89
TIMI Major or Minor Bleeding, HR [1, 15]: 3.11
All-cause mortality, (%) [1, 16]: (4.3) %
Cor. heart dis. death, (%) [1, 16]: (1.4) %
Fatal bleeding, (%) [1, 16]: (0.2) %
Intracranial bleeding, (%) [1, 16]: (0.5) %
Myocardial infarction, (%) [1, 16]: (4.4) %
Stroke, (%) [1, 16]: (1.7) %
TIMI Major Bleeding, (%) [1, 16]: (2.7) %
TIMI Major or Minor Bleeding, (%) [1, 16]: (3.8) %
HR for cardiovascular death, myocardial infarction, or stroke vs. placebo ([1]; doses pooled, withdrawal ≤30 days, beyond 90 days): 0.76
HR for cardiovascular death, myocardial infarction, or stroke vs. placebo ([1]; doses pooled, withdrawal ≤30 days, first 90 days after randomization): 0.54
reduction in the risk of developing a subsequent atherothrombotic event ([1]; more than one year after withdrawal of previous dual antiplatelet therapy): did not experience a reduction
HR for cardiovascular death, myocardial infarction, or stroke vs. placebo ([1]; pooled doses, time from last P2Y12 inhibitor 31-360 days): 0.86
HR for cardiovascular death, myocardial infarction, or stroke vs. placebo ([1]; pooled doses, time from last P2Y12 inhibitor >360 days): 1.01
HR for cardiovascular death, myocardial infarction, or stroke vs. placebo ([1]; pooled doses, time from last P2Y12 inhibitor ≤30 days): 0.73
HR for cardiovascular death vs. placebo [1, 17]: 0.78
HR for myocardial infarction vs. placebo [1, 17]: 0.72
HR for stroke vs. placebo [1, 17]: 0.64
HR for cardiovascular death, myocardial infarction, or stroke vs. placebo ([1]; pooled doses, ≤30 days of stopping, qualifying MI <2 years prior to randomization): 0.73
HR for cardiovascular death, myocardial infarction, or stroke vs. placebo ([1]; pooled doses, ≤30 days of stopping, qualifying MI ≥2 years prior to randomization): 0.71
All-cause mortality, HR [1, 18]: 0.80
Cor. heart dis. death, HR [1, 18]: 0.78
Fatal bleeding, HR [1, 18]: 2.15
Intracranial bleeding, HR [1, 18]: 1.53
Myocardial infarction, HR [1, 18]: 0.78
Stroke, HR [1, 18]: 0.64
TIMI Major Bleeding, HR [1, 18]: 3.3
TIMI Major or Minor Bleeding, HR [1, 18]: 3.43
All-cause mortality, (%) [1, 19]: (4.3) %
Cor. heart dis. death, (%) [1, 19]: (1.5) %
Fatal bleeding, (%) [1, 19]: (0.4) %
Intracranial bleeding, (%) [1, 19]: (0.8) %
Myocardial infarction, (%) [1, 19]: (5.2) %
Stroke, (%) [1, 19]: (1.5) %
TIMI Major Bleeding, (%) [1, 19]: (2.6) %
TIMI Major or Minor Bleeding, (%) [1, 19]: (4.1) %
All-cause mortality, HR [1, 20]: 1.02
Cor. heart dis. death, HR [1, 20]: 0.67
Fatal bleeding, HR [1, 20]: 2.25
Intracranial bleeding, HR [1, 20]: 2.07
Myocardial infarction, HR [1, 20]: 0.67
Stroke, HR [1, 20]: 0.64
TIMI Major Bleeding, HR [1, 20]: 3.44
TIMI Major or Minor Bleeding, HR [1, 20]: 3.57
All-cause mortality, (%) [1, 21]: (5.1) %
Cor. heart dis. death, (%) [1, 21]: (1.1) %
Fatal bleeding, (%) [1, 21]: (0.2) %
Intracranial bleeding, (%) [1, 21]: (0.7) %
Myocardial infarction, (%) [1, 21]: (4.6) %
Stroke, (%) [1, 21]: (1.3) %
TIMI Major Bleeding, (%) [1, 21]: (2.4) %
TIMI Major or Minor Bleeding, (%) [1, 21]: (3.8) %
All-cause mortality, HR [1, 22]: 0.91
Cor. heart dis. death, HR [1, 22]: 0.72
Fatal bleeding, HR [1, 22]: 2.2
Intracranial bleeding, HR [1, 22]: 1.79
Myocardial infarction, HR [1, 22]: 0.72
Stroke, HR [1, 22]: 0.64
TIMI Major Bleeding, HR [1, 22]: 3.36
TIMI Major or Minor Bleeding, HR [1, 22]: 3.50
All-cause mortality, (%) [1, 23]: (4.7) %
Cor. heart dis. death, (%) [1, 23]: (1.3) %
Fatal bleeding, (%) [1, 23]: (0.3) %
Intracranial bleeding, (%) [1, 23]: (0.7) %
Myocardial infarction, (%) [1, 23]: (4.9) %
Stroke, (%) [1, 23]: (1.4) %
TIMI Major Bleeding, (%) [1, 23]: (2.5) %
TIMI Major or Minor Bleeding, (%) [1, 23]: (4.0%
increase in AUC ([2]; high-fat meal): 21%
mean absolute bioavailability ([2]; human, in vivo): about 36%
steady state volume of distribution ([2]; human, in vivo): 88 L
median tmax ([2]; in patients after administration of ticagrelor): 1.5 h
